Source: patent publication US8999954B2, “Inhibitors of polysialic acid de-N-acetylase and methods for using the same” (Childern's Hospital & Research Center at Oakland, priority 2007, dated 2015)

What was measured:
[1] = test system: Jurkat T-cell leukemia cells; assay: Cell viability assay (Guava ViaCount, flow cytometry); type: cell-based, human; conditions: for EC50: Homo sapiens, read-out: concentration for half-maximal decrease in viability; for EC50 / viability of Jurkat cells: 24 hrs incubation; for apoptosis and cell death in Jurkat cells / cell viability of Jurkat cells: 24 hrs, concentration of 10 mM (FIG. 7); for viability of Jurkat cells: concentration in cell culture media varied (FIG. 3, 4, 9)
Method: (§1) Human melanoma SK-MEL 28, neuroblastoma CHP-134, and T-cell leukemia Jurkat cell lines were obtained from ATCC (Manassas, Va.). All cell lines were grown in RPMI 1640 media (UCSF Cell Culture Facility, San Francisco, Calif.), supplemented with 10% heat-inactivated fetal bovine serum (Gemini Bio-Products, West Sacramento, Calif.), non-essential amino acids, 100 units/ml penicillin/streptomycin, 110 μg/ml sodium pyruvate, and 2 mM glutamine (UCSF Cell Culture Facility). Jurkat cells were grown to a concentration of not more than 10^6 cells/ml and adherent SK-MEL 28 and CHP-134 cells to a concentration of not more than 5×10^4 cells/cm^2.
(§2) The effect of inhibitors of PSA de-N-acetylase on the viability of human tumor cell lines in culture was measured using a cell viability assay. Cells were incubated with N-acyl or methanesulfonyl hexosamine derivatives for 24 hours. Jurkat cells were incubated at a concentration of 2×10^5 cells/ml in round-bottom 96-well plates (Falcon), 200 μl/well. Adherent cells were incubated at a concentration of 1×10^5 cells/ml in flat-bottom 96-well plates (Nunc). Plates were then spun at 1,000×g for 5 minutes. SK-MEL 28 cells were release from the plate using a trypsin/EDTA solution (UCSF Cell Culture Facility). CHP-134 cells were released using CDR (Guava Technologies). All cells were resuspended in Guava ViaCount reagent and read on a Guava EasyCyte flow cytometer, using the Guava ViaCount assay (all from Guava Technologies).

[2] = test system: CHP-134 neuroblastoma cells; assay: as above; type: cell-based, human; conditions: for EC50: Homo sapiens, 24 hrs incubation, read-out: concentration for half-maximal decrease in viability; for EC50 / induction of apoptosis: CHP-134 cells
Method: as §1, §2

[3] = test system: Jurkat T-cell leukemia cells; assay: as above; type: cell-based, human; conditions: 96 hrs incubation, increasing concentrations (FIG. 8)
SK-MEL 28 melanoma cells [4] = assay: as above; type: cell-based, human
Method: as §1, §2

[5] = target: T1, membrane transporters for N-acetyl neuraminic acid (Homo sapiens, UniProt Q9NRA2); conditions: lysosomal membrane transporter; Essentials of Glycobiology 1999; read-out: Michaelis constant, Km, for forming a substrate/transporter complex; cited from earlier work
T1 sequence (Q9NRA2 1-495): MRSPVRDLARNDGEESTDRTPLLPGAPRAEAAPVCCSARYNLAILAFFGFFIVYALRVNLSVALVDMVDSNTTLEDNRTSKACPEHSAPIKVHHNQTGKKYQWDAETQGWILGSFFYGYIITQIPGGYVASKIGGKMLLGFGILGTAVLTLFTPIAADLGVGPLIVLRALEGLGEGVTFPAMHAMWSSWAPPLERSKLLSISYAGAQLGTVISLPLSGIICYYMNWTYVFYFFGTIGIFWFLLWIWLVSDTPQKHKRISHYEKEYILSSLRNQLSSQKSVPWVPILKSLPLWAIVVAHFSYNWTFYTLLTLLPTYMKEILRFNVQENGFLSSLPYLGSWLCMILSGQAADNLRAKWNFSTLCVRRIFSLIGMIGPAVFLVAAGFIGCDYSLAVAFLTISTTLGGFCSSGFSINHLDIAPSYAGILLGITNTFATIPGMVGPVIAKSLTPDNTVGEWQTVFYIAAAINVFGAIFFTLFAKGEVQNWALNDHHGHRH

[6] = test system: Jurkat T-cell leukemia cells; assay: Cell surface expression of N-propionyl PSA (SEAM 18 binding, flow cytometry); type: cell-based, human; conditions: 10 mM supplement in media, 24 hours (FIG. 2)
Method: (§3) CHP-134, SK-MEL 28 and Jurkat cells were cultured in media containing N-propionyl galactosamine, N-propionyl mannosamine, or N-acetyl mannosamine (10 mM) or no supplement for 24 hours. To measure mAb binding, the cells were released from the plate, pelleted by centrifugation, washed with PBS, and fixed with 1% formaldehyde in PBS. All procedures were performed on ice. Cells were blocked with PBS containing 3% goat serum, then were incubated overnight at 4° C. with one of the following primary antibodies (˜1 μg/ml), diluted in 3% goat serum: irrelevant isotype control mAbs IgG2a or IgG2b (Southern Biotech), SEAM 3 (Granoff et al. J. Immunol. 1998, 160:5028), or SEAM 18 (Granoff et al. J. Immunol. 1998, 160:5028). Cells were then washed and labeled with goat-anti-mouse FITC (1:1000, Jackson Immunoresearch, West Grove, Pa.). Fluorescence was measured on a Guava EasyCyte flow cytometer, using the Guava ExpressPlus assay (Guava Technologies) and the results are expressed as the percent of cells that are positive for mAb binding.

[7] = test system: CHP-134 neuroblastoma cells; assay: as above; type: cell-based, human; conditions: CHP-134, 10 mM supplement in media, 24 hours (FIG. 2)
Method: as §3

SK-MEL 28 melanoma cells [8] = assay: as above; type: cell-based, human; conditions: SK-MEL 28, 10 mM supplement in media, 24 hours (FIG. 2)
Method: as §3

[9] = 96 hrs incubation, increasing concentrations (FIG. 8)
[10] = 24 hours, concentration-dependent (FIG. 4)

C=CC(=O)N[C@H]1C(O)O[C@H](CO)[C@H](O)[C@@H]1O (some centres unmarked) [GalNAcryl, N-Acryl Galactosamine]
EC50 ([1]; Jurkat cells): 3000 µM | EC50 [2]: 3000 µM

CS(=O)(=O)N[C@H]1C(O)O[C@H](CO)[C@H](O)[C@@H]1O (some centres unmarked) [GalNMeSul, N-Methyanesulfonyl Galactosamine]
cell viability of Jurkat cells [3]: reduced | apoptosis and cell death in Jurkat cells [1]: inducing apoptosis and cell death | cell viability of Jurkat cells [1]: decrease cell viability | induction of apoptosis ([1]; Jurkat cells): induce apoptosis | cell viability of CHP-134 cells [2, 9]: reduced | induction of apoptosis [2]: induce apoptosis | cell viability of SK-MEL 28 cells (SK-MEL 28 melanoma cells [4]; [9]): reduced | induction of apoptosis (SK-MEL 28 melanoma cells [4]; SK-MEL 28 cells): induce apoptosis

O=C(CCl)N[C@@H]1C(O)O[C@H](CO)[C@@H](O)[C@@H]1O (some centres unmarked) [ManNClAc, N-Chloroacetyl Mannosamine]
EC50 ([1]; Jurkat cells): ~1000 µM | EC50 [2]: ~1000 µM | EC50 (SK-MEL 28 melanoma cells [4]; Homo sapiens, SK-MEL 28 cells, 24 hrs incubation, read-out: concentration for half-maximal decrease in viability): ~8000 µM

CS(=O)(=O)N[C@@H]1C(O)O[C@H](CO)[C@@H](O)[C@@H]1O (some centres unmarked) [ManNMeSul, N-Methyanesulfonyl Mannosamine]
cell viability of Jurkat cells [3]: reduced | apoptosis and cell death in Jurkat cells [1]: inducing apoptosis and cell death | cell viability of Jurkat cells [1]: decrease cell viability | induction of apoptosis ([1]; Jurkat cells): induce apoptosis | cell viability of CHP-134 cells [2, 9]: reduced | induction of apoptosis [2]: induce apoptosis | cell viability of SK-MEL 28 cells (SK-MEL 28 melanoma cells [4]; [9]): reduced | induction of apoptosis (SK-MEL 28 melanoma cells [4]; SK-MEL 28 cells): induce apoptosis

CC(=O)N[C@H]1[C@H]([C@H](O)[C@H](O)CO)OC(O)(C(=O)O)C[C@@H]1O (some centres unmarked) [N-acetyl neuraminic acid]
Km [5]: ~500 µM

C=CC(=O)N[C@@H]1C(O)O[C@H](CO)[C@@H](O)[C@@H]1O (some centres unmarked) [N-acryl mannosamine, N-Acryl Mannosamine]
apoptosis and cell death of Jurkat cells ([1]; 24 hours, four concentrations (FIG. 3)): inducing apoptosis and cell death | viability of Jurkat cells [1]: reduces the viability | sensitivity of Jurkat cells to killing relative to the other cell lines ([1]; Jurkat vs CHP-134 and SK-MEL 28 (FIG. 4)): approximately 10 fold | cell viability of CHP-134 cells [2, 10]: reducing the cell viability | cell viability of SK-MEL 28 cells (SK-MEL 28 melanoma cells [4]; [10]): reducing the cell viability

CCC(=O)N[C@H]1C(O)O[C@H](CO)[C@H](O)[C@@H]1O (some centres unmarked) [N-propionyl galactosamine]
percentage of cells positive for SEAM 18 binding [6]: increases | percentage of cells positive for SEAM 18 binding [7]: increases | percentage of cells positive for SEAM 18 binding (SK-MEL 28 melanoma cells [8]): increases

CCC(=O)N[C@@H]1C(O)O[C@H](CO)[C@@H](O)[C@@H]1O (some centres unmarked) [N-propionyl mannosamine]
percentage of cells positive for SEAM 18 binding [6]: increases | percentage of cells positive for SEAM 18 binding [7]: increases | percentage of cells positive for SEAM 18 binding (SK-MEL 28 melanoma cells [8]): increases

Poly alpha (2→8) N-Acryl Neuraminic Acid [N-acryl PSA]
viability of Jurkat cells [1]: reduced viability | concentration required to induce cell death compared with N-acryl mannosamine ([1]; Jurkat cells, 24 hrs (FIG. 9)): higher
